For 14 molecules, TGI results are on record in PubChem BioAssay (NCI).

Among the test systems are BT-549 breast; CAKI-1 renal; COLO 205 colon; DU-145 prostate; HCC-2998 colon; HCT-15 colon; OVCAR-4 ovarian; PC-3 prostate; SF-295 CNS; MCF7 breast.
What all share (assay): DTP human tumour cell line panel, 48 h

Structures are written as SMILES.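 Cells were grown in 96-well plates and exposed to each compound for 48 hours at five concentrations; endpoints were interpolated linearly between bracketing concentrations, or set to the highest concentration if not reached. TGI: total growth inhibition.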 Some results are limits rather than exact numbers.

One may read the TGI as the concentration giving total growth inhibition. The low end stands for more potent growth arrest, the high end for less potent growth arrest. On to `O=c1/c(=C/c2ccccn2)sc2nc3cc4c(cc3n12)OCCO4`, for which the concentration for total growth inhibition (TGI) in the test with BT-549 breast, in the test on CAKI-1 renal, with COLO 205 colon, in the test with DU-145 prostate, in the test with HCC-2998 colon and in the test with HCT-15 colon was over 100 µM each time. Besides, the TGI with OVCAR-4 ovarian, in the test with PC-3 prostate and in the test with SF-295 CNS was over 100 µM each time.
Consider `CC(=O)[C@@]1(c2ccccc2)CC2(CCN(C)CC2)O[C@H]1C`, for which the TGI in the test on BT-549 breast, in the test with CAKI-1 renal, in the test on COLO 205 colon, with DU-145 prostate, in the test with HCT-15 colon and with OVCAR-4 ovarian was over 100 µM throughout. Besides, the concentration for total growth inhibition (TGI) in the test with SF-295 CNS is over 100 µM.
As for `COc1cccc(CCNc2c(C#N)c3n(c4ccccc4[n+]3C)c3ncccc23)c1`, the concentration for total growth inhibition (TGI) with BT-549 breast was 49.5 µM; in the test on CAKI-1 renal it was over 100 µM; in the test with COLO 205 colon it was 10.5 µM; with DU-145 prostate it was 11.3 µM; in the test on HCC-2998 colon, 3.46 µM; with HCT-15 colon it was 3.74 µM. The TGI with MCF7 breast stood at 5.13 µM; in the test with OVCAR-4 ovarian, 10.8 µM; with PC-3 prostate, 31.4 µM; in the test with SF-295 CNS, 3.67 µM.
Take `O=c1[nH]cnc2c1cnn2Cc1cnnn1COCCO`: the TGI in the test with BT-549 breast, in the test with CAKI-1 renal, in the test on COLO 205 colon, with DU-145 prostate, with HCC-2998 colon and with HCT-15 colon was over 100 µM throughout. For the same molecule, the total growth inhibition concentration (TGI) in the test with MCF7 breast, in the test with OVCAR-4 ovarian, in the test with PC-3 prostate and in the test on SF-295 CNS was over 100 µM each time.
For `CCOS(=O)(=O)c1ccc(-c2c3nc(c(-c4ccc(S(=O)(=O)OCC)cc4)c4ccc([nH]4)c(-c4ccc(S(=O)(=O)OCC)cc4)c4nc(c(-c5ccc(S(=O)(=O)OCC)cc5)c5ccc2[nH]5)C=C4)C=C3)cc1`, the TGI in the test on BT-549 breast, in the test with CAKI-1 renal, in the test with COLO 205 colon, in the test on DU-145 prostate, with HCC-2998 colon and in the test with HCT-15 colon was over 31.6 µM throughout. For the same molecule, the total growth inhibition concentration (TGI) with MCF7 breast, with OVCAR-4 ovarian, with PC-3 prostate and in the test on SF-295 CNS was over 31.6 µM in each case.
Regarding `CSc1nc(NCc2ccccc2)c2cnn(COCCO)c2n1`, the concentration for total growth inhibition (TGI) is over 100 µM in the test with BT-549 breast; over 100 µM with CAKI-1 renal; 85.7 µM with COLO 205 colon; over 100 µM in the test with DU-145 prostate; over 100 µM in the test on MCF7 breast; over 100 µM in the test with OVCAR-4 ovarian. Further, the TGI in the test on PC-3 prostate and in the test with SF-295 CNS was over 100 µM in each case.
For `CC(=O)NC(C)(C)C1CCC(C)CC1` (centres undefined), the TGI in the test on BT-549 breast, with CAKI-1 renal, in the test with COLO 205 colon, with DU-145 prostate, with HCC-2998 colon and in the test on HCT-15 colon was over 100 µM each time. Besides, the TGI with MCF7 breast, with OVCAR-4 ovarian, in the test with PC-3 prostate and with SF-295 CNS was over 100 µM in each case.
With `COc1ccc(C2=NNC(=O)c3ccccc3N2c2nc(-c3cccs3)nc3cc(OC)c(OC)cc23)cc1`, the total growth inhibition concentration (TGI) in the test on BT-549 breast is 6.63 µM; with CAKI-1 renal, 44.7 µM; with COLO 205 colon it was over 100 µM; in the test with DU-145 prostate, over 100 µM; in the test with HCC-2998 colon it was 7.21 µM; with HCT-15 colon, over 100 µM. Moreover, the TGI in the test on MCF7 breast is 9 µM; with OVCAR-4 ovarian it was 4.49 µM; in the test with PC-3 prostate, over 100 µM; in the test on SF-295 CNS it was 9.9 µM.
Turning to `Cc1ccnc(Nc2[nH]c(C(=O)c3ccc(Cl)cc3)c(N)c2C(=S)Nc2ccccc2)c1`, the total growth inhibition concentration (TGI) in the test on BT-549 breast is 30.5 µM; with CAKI-1 renal, over 100 µM; in the test on COLO 205 colon, 29.9 µM; in the test with DU-145 prostate it was 63.7 µM; with HCC-2998 colon, 29.7 µM; in the test on HCT-15 colon, 34.2 µM. The TGI was 31.5 µM in the test on MCF7 breast, 29.4 µM with OVCAR-4 ovarian, over 100 µM in the test on PC-3 prostate and 36.8 µM in the test on SF-295 CNS.
For `O=C(NC1=C(Cl)C(=O)c2ccccc2C1=O)C(=O)C(C(=O)c1ccc2ccccc2c1)C1OC(=O)c2ccccc21` (centres undefined), the total growth inhibition concentration (TGI) with BT-549 breast is 17.3 µM; in the test with CAKI-1 renal, 23.2 µM; in the test on COLO 205 colon, 18.5 µM; in the test on DU-145 prostate it was 23.9 µM; with HCC-2998 colon, 22.7 µM; in the test with HCT-15 colon it was 18 µM. Besides, the TGI in the test on MCF7 breast came out at 16.8 µM; in the test on OVCAR-4 ovarian, 19.8 µM; with SF-295 CNS it was 14.9 µM.
Take `CN1C(=O)C23CCCC2CC1(c1ccccc1)S3` (centres undefined): the TGI in the test with BT-549 breast, with CAKI-1 renal, in the test on COLO 205 colon, in the test on DU-145 prostate, with HCT-15 colon and with MCF7 breast was over 100 µM in each case. Further, the TGI in the test with OVCAR-4 ovarian, with PC-3 prostate and in the test with SF-295 CNS was over 100 µM throughout.
With `C(=C/c1nnnn1-c1ccccc1)/Nc1ccccc1`, the TGI is 53.9 µM in the test with BT-549 breast; over 100 µM in the test with CAKI-1 renal; over 100 µM in the test on COLO 205 colon; over 100 µM in the test on DU-145 prostate; 97.7 µM with HCC-2998 colon; 44.2 µM in the test with HCT-15 colon. Besides, the total growth inhibition concentration (TGI) with MCF7 breast was 64.8 µM; in the test with PC-3 prostate, over 100 µM; in the test on SF-295 CNS, 85.3 µM.
`CCC(Nc1ncnc2nc[nH]c12)C(=O)O` (centres undefined): the TGI in the test on BT-549 breast, in the test on CAKI-1 renal, with COLO 205 colon, with DU-145 prostate, with HCC-2998 colon and with HCT-15 colon was over 100 µM throughout. Besides, the total growth inhibition concentration (TGI) with MCF7 breast, with OVCAR-4 ovarian, in the test with PC-3 prostate and in the test on SF-295 CNS was over 100 µM each time.
For `O=C1CC(c2ccccc2)n2c(nc3ccccc32)N1` (centres undefined), the TGI with BT-549 breast, in the test with CAKI-1 renal, in the test with COLO 205 colon, with HCT-15 colon, with MCF7 breast and in the test with OVCAR-4 ovarian was over 100 µM throughout. The TGI with PC-3 prostate and in the test with SF-295 CNS was over 100 µM each time.
